From US4231925A, “Pentapeptides with analgesic activity on peripheral administration” (American Home Products Corporation, priority 1979, dated 1980)
Where “and” joins values, the source holds several entries; their conditions need not be identical. Equal entries are not always repeated. Where two headings read alike, the source gives them in different places.

Tests used:
[1] = tested on: opiate receptor; conditions: electrically stimulated guinea pig ileum; cited from earlier work
[2] = oral administration; cited from earlier work
[3] = tested on: tail-flick; conditions: rat, cited from earlier work
[4] = rat blood plasma; cited from earlier work
[5] = e.g. subcutaneously or intravenously; cited from earlier work
[6] = human blood plasma; cited from earlier work
[7] = rat lateral brain ventricle; cited from earlier work
[8] = tested on: phenylbenzoquinone (PBQ)-induced writhing; test: phenylbenzoquinone-induced writhing test, subcutaneous administration; assay type: in vivo, mice
Experimental: The procedure is a modification of the method described by Siegmund and Cadmus, Proc. Soc. Exp. Biol. Med., 95, 729-731 (1957), which is used to evaluate both narcotic and non-narcotic analgesics. […] Laboratory mice of either sex, weighing 18-27 g. are used in groups of ten as test subjects. The test compound is administered first in an initial dose determined by the potency of the class of compounds and the route of administration. The test is run first in one group of mice at a relatively high dose to establish significant analgesic activity [see (1) in Table I]. When analgesic activity is observed in four or more of this group, a second test is run on at least three groups of mice to determine the most appropriate dose/time response to use in the subsequent dose response test [see (2) in Table I]. Finally, the ED50 dose is determined by administering different doses to several groups of mice and observing their reaction during the time interval established by the dose/time test [see (3)-(9) in Table I]. Note that the time interval is designated by the median time of the chosen response observation period (e.g. 15, 30, or 45 minutes). In testing each group of mice according to the above protocol, all mice in the group first are administered the selected dose of the test compound solution. Five minutes prior to the observation period (viz. at 5, 20, or 35 minutes after subcutaneous administration of the test compound of at 20, 50, or 80 minutes after oral administration of the test compound) all mice in the group receive 0.25 ml., intraperitoneally, of the writhing agonist (i.e. 0.02% solution of PBQ). At the chosen time interval, the group of mice is observed for a period of ten minutes for writhing.

[9] = tested on: rat brain opiate receptors; test: in vitro opiate receptor assay, 3H-naloxone displacement in rat brain homogenate; assay type: binding; conditions: relative to morphine = 1.0
Experimental: In this procedure, a fasted male Charles River CD rat, 190-290 g., is killed with a guillotine after carbon-dioxideanesthesia, and the brain is rapidly removed. After the cerebellum is excised, the brain is homogenized in 100 vol. (usually 150 ml.) iced 0.05 M Trizma buffer (pH 7.4 at 25°) 0.1 M in sodium chloride in a Brinkman Polytron for 1 min. at setting 3. The homogenate is centrifuged at 49,500 g for 15 min. (Sorvall SS-34 rotor at 19,500 rpm) in 50 ml. propylene tubes. The supernatant is decanted, and the pellets are resuspended in iced buffer to the original volume by use of a motor driven pestle tissue grinder. The homogenate is centrifuged again and resuspended in 10 ml. iced buffer.
Homogenates and samples ae equilibrated at room temperature for 5 minutes before adding 0.05 ml. 3 H-naloxone solution to give a total volume of 0.50 ml. for all tubes.
The assay tubes are hand-shaken every 15 min. for an incubation time of 60 min. at 0° C. The contents are filtered under reduced pressure through Whatman glass-fiber circles (GF/B, 2.4 cm. dia.). […] The vials are hand-shaken immediately, after 30 min., at the end of the day, stored overnight, hand-shaken, and radioactivity is determined by liquid-sintillation spectrometry.
The assay is calculated as follows: […]

[10] = intracerebroventricularly, intravenously, or subcutaneously; cited from earlier work

(D-Met^2, Leu^5) enkephalin, methyl ester
opiate receptor agonist activity [1]: strong opiate receptor agonist activity

(D-Ala^2, Me-Phe^4, Met(0)^5)-enkephalin
analgesic activity [2]: elicited analgesic activity

H--Tyr--Gly--Gly--Phe--Met--OH [Met-enkephalin]
dose producing analgesia equivalent to morphine ([3]; intraventricular): 10-20 times that of morphine
duration of analgesia ([3]; intraventricular): 10 to 12 min
breakdown in blood plasma [4]: broken down
activity when administered systemically [5]: virtually inactive
breakdown in blood plasma [6]: broken down

H--Tyr--Gly--Gly--Phe--Leu--OH [Leu-enkephalin]
dose producing analgesia equivalent to morphine ([3]; intraventricular): 10-20 times that of morphine
duration of analgesia ([3]; intraventricular): 10 to 12 min
activity when administered systemically [5]: virtually inactive

(Ser^5)-enkephalin
analgesic activity [7]: eliciting analgesic activity

CN[C@@H](Cc1ccc(O)cc1)C(=O)N[C@H](CCSC)C(=O)NCC(=O)N(C)[C@@H](Cc1ccccc1)C(=O)N[C@H](CO)C(N)=O [Example 1, N-Methyl-Tyrosyl-D-Methionyl-Glycyl-N-Methyl-Phenylalanyl-D-Serinamide . Acetate]
No. Analgesic / Total No. Tested ([8]; (1) 10.0 mg/kg subcutaneous, 15 minutes, 10 mg/kg): 10/10 and 10 of 10
No. Analgesic / Total No. Tested ([8]; (2) dose/time test, 0.1 mg/kg subcutaneous, 15 minutes): 4/10
No. Analgesic / Total No. Tested ([8]; (2) dose/time test, 0.1 mg/kg subcutaneous, 30 minutes): 3/10
No. Analgesic / Total No. Tested ([8]; (2) dose/time test, 0.1 mg/kg subcutaneous, 45 minutes): 1/10
No. Analgesic / Total No. Tested ([8]; (3) 0.032 mg/kg subcutaneous, 15 minutes): 0/10
No. Analgesic / Total No. Tested ([8]; (4) 0.056 mg/kg subcutaneous, 15 minutes): 3/10
No. Analgesic / Total No. Tested ([8]; (5) dose response test, 0.1 mg/kg subcutaneous, 15 minutes): 2/10
No. Analgesic / Total No. Tested ([8]; (6) 0.178 mg/kg subcutaneous, 15 minutes): 6/10
No. Analgesic / Total No. Tested ([8]; (7) 0.316 mg/kg subcutaneous, 15 minutes): 5/10
No. Analgesic / Total No. Tested ([8]; (8) 0.56 mg/kg subcutaneous, 15 minutes): 4/10
No. Analgesic / Total No. Tested ([8]; (9) 1.00 mg/kg subcutaneous, 15 minutes, 1 mg/kg): 8/10 and 8 of 10
ED50 ([8]; subcutaneous, mice, complete inhibition of PBQ-induced writhing, 15 minutes): 0.33 mg/kg
Relative Displacement Potency [9]: 14
Relative Displacement Potency ([9]; listed as Example I): in excess of ten times

(D-Ala^2, Met(O)^5)-enkephalin
analgesic activity [2]: elicited analgesic activity

CN1CC[C@]23c4c5ccc(O)c4O[C@H]2[C@@H](O)C=C[C@H]3[C@H]1C5 [Morphine]
duration of analgesia ([3]; morphine comparison): an hour or more

(D-Met^2, Pro^5)-enkephalin amide
analgesic activity [10]: elicits analgesic activity
